Source: US5204323A, “Heparin and hirudin antidotal compositions and methods” (Ciba-Geigy Corporation, priority 1988, dated 1993)

What was measured:
[1] = system: Factor VIII levels in human plasma; experiment: DDAVP infusion into human volunteers, Factor VIII levels in plasma; assay type: in vivo; settings: DDAVP 0.3 mg/kg in sterile saline infused over 15 minutes, compared to volume matched saline controls, FIG. 7
Procedure: (§1) 1-Deamino-8-D-arginine vasopressin (DDAVP) ([…] in sterile saline) is infused into human volunteers over a 15 minute period between times 0-15 minutes. Subsequently blood samples are taken and FVIII levels measured (Langdell et al. (1953) J. Lab. Chim. Med. 41, 637) and the correspond. ing effect on hirudin induced elevation of APTT in vitro asessed. The results are shown in FIG. 7 which represent a typical example of ten volunteer studies. […] Results are compared to volume matched saline controls.

[2] = system: hirudin induced elevation of APTT in human plasma; experiment: Hirudin induced elevation of APTT in vitro in blood samples taken after DDAVP infusion; assay type: in vivo; settings: blood samples of human volunteers after DDAVP infusion (0.3 mg/kg, 15 minutes); desulphatohirudin HV1 added in vitro; FIG. 7
Procedure: The anticoagulant effects of hirudin are measured in vitro on human plasma to which various concentrations of hirudin (in saline) have been added, one minute prior to APTT determination (Activated partial thromboplastin time; means for measuring blood clotting according to Basu et al. (1972) N. Engl. J. Med. 287, 324). Different concentrations of FVIII (reconstituted in water in accordance with the manufacturers specification) are added and the results are shown in FIG. 3 of the accompanying drawings. The anticoagulant effects of hirudin are measured by APTT.
as §1

SMILES: NC(=O)CC[C@@H]1NC(=O)[C@H](Cc2ccccc2)NC(=O)[C@H](Cc2ccc(O)cc2)NC(=O)CCSSC[C@@H](C(=O)N2CCC[C@H]2C(=O)N[C@H](CCCN=C(N)N)C(=O)NCC(N)=O)NC(=O)[C@H](CC(N)=O)NC1=O [DDAVP, 1-deamino-8-D-arginine vasopressin]
- FVIII levels [1]: raised FVIII levels
- effect on hirudin induced elevation of APTT in vitro [2]: reduces the degree of anticoagulation induced by hirudin
